According to ChEMBL document CHEMBL5715954, “Silencing c-Myc translation as a therapeutic strategy through targeting PI3Kδ and CK1ε in hematological malignancies” (Blood, 2017):

Tests used:
Design in all cases: scale not given: the % may be the effect or the level left
[1] = target: T1, TGF-beta receptor type-1 (Homo sapiens) (UniProt P36897); test: Inhibition of human ALK5 assessed as enzyme activity at 1 uM using casein as substrate preincubated for 20 mins followed by [gamma-33P]-ATP addition and measured after 120 mins by radiometric Hot-SpotSM Kinase assay relative to control
T1 sequence (whole entry): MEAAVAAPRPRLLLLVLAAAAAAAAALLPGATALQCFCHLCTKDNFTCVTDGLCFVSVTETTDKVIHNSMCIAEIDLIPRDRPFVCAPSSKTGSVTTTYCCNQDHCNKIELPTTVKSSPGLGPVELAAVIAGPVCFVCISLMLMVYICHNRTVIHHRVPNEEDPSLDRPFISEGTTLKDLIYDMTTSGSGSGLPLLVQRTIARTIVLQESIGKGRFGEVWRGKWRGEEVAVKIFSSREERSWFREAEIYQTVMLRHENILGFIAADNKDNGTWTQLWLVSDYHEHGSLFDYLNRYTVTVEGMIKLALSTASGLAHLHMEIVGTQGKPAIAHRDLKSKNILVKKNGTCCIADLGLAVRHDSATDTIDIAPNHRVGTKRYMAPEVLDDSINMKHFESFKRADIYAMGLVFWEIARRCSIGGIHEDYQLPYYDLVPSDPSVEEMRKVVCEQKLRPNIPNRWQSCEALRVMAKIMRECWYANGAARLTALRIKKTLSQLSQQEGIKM

[2] = target: T2, Serine/threonine-protein kinase A-Raf (Homo sapiens) (UniProt P10398); test: Inhibition of human ARAF assessed as enzyme activity at 1 uM using MEK1 (K97R) as substrate preincubated for 20 mins followed by [gamma-33P]-ATP addition and measured after 120 mins by radiometric Hot-SpotSM Kinase assay relative to control
T2 sequence (whole entry): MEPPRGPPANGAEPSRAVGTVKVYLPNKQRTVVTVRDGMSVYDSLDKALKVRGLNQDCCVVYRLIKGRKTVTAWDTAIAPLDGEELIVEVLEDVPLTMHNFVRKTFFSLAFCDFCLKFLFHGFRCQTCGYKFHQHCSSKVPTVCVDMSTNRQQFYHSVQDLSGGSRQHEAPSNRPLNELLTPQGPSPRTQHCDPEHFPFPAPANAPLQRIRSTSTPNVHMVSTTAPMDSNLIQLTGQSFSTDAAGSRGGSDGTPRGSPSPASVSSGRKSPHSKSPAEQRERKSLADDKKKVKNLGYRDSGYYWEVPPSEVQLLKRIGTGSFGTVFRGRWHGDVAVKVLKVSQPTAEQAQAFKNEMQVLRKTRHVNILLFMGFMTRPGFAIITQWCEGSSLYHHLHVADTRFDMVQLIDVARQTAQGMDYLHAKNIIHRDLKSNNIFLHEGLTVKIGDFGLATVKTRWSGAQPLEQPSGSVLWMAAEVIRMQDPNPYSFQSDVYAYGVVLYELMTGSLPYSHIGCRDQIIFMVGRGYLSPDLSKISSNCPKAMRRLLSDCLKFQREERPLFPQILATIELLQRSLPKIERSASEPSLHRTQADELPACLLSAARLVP

[3] = target: CDK9/Cyclin K (Homo sapiens) (UniProt P50750+O75909); test: Inhibition of human CDK9/cyclin K assessed as enzyme activity at 1 uM using KTFCGTPEYLAPEVRREPRILSEEEQEMFRDFDYIADWC as substrate preincubated for 20 mins followed by [gamma-33P]-ATP addition and measured after 120 mins by radiometric Hot-SpotSM Kinase assay relative to control; format: protein-complex assay
[4] = target: Insulin-like growth factor 1 receptor (Homo sapiens) (UniProt P08069); test: Inhibition of human IGF1R assessed as enzyme activity at 1 uM using KKKSPGEYVNIEFG as substrate preincubated for 20 mins followed by [gamma-33P]-ATP addition and measured after 120 mins by radiometric Hot-SpotSM Kinase assay relative to control
[5] = target: Insulin receptor (Homo sapiens) (UniProt P06213); test: Inhibition of human IR assessed as enzyme activity at 1 uM using poly[Glu:Tyr] (4:1) as substrate preincubated for 20 mins followed by [gamma-33P]-ATP addition and measured after 120 mins by radiometric Hot-SpotSM Kinase assay relative to control
[6] = target: Myosin light chain kinase 2, skeletal/cardiac muscle (Homo sapiens) (UniProt Q9H1R3); test: Inhibition of human MLCK2 assessed as enzyme activity at 1 uM using KKLNRTLSFAEPG as substrate preincubated for 20 mins followed by [gamma-33P]-ATP addition and measured after 120 mins by radiometric Hot-SpotSM Kinase assay relative to control
[7] = target: Ribosomal protein S6 kinase alpha-4 (Homo sapiens) (UniProt O75676); test: Inhibition of human MSK2 assessed as enzyme activity at 1 uM using GRPRTSSFAEG as substrate preincubated for 20 mins followed by [gamma-33P]-ATP addition and measured after 120 mins by radiometric Hot-SpotSM Kinase assay relative to control
[8] = target: Ribosomal protein S6 kinase beta-1 (Homo sapiens) (UniProt P23443); test: Inhibition of human p70S6K assessed as enzyme activity at 1 uM using KKRNRTLTK as substrate preincubated for 20 mins followed by [gamma-33P]-ATP addition and measured after 120 mins by radiometric Hot-SpotSM Kinase assay relative to control
[9] = target: T3, Lymphokine-activated killer T-cell-originated protein kinase (Homo sapiens) (UniProt Q96KB5); test: Inhibition of human PBK assessed as enzyme activity at 1 uM using myelin basic protein as substrate preincubated for 20 mins followed by [gamma-33P]-ATP addition and measured after 120 mins by radiometric Hot-SpotSM Kinase assay relative to control
T3 sequence (whole entry): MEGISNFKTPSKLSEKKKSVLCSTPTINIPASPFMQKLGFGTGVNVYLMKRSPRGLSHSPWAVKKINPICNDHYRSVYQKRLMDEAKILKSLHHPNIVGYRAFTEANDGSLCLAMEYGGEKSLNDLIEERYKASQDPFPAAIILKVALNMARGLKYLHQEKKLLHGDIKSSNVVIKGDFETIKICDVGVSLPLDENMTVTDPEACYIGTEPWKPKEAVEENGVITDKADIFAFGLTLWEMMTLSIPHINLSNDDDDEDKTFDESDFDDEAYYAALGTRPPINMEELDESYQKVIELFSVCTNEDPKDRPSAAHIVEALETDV

[10] = target: Platelet-derived growth factor receptor alpha (Homo sapiens) (UniProt P16234); test: Inhibition of human PDGFRa assessed as enzyme activity at 1 uM using poly[Glu:Tyr] (4:1) as substrate preincubated for 20 mins followed by [gamma-33P]-ATP addition and measured after 120 mins by radiometric Hot-SpotSM Kinase assay relative to control
[11] = target: Receptor-interacting serine/threonine-protein kinase 3 (Homo sapiens) (UniProt Q9Y572); test: Inhibition of human RIPK3 assessed as enzyme activity at 1 uM using myelin basic protein as substrate preincubated for 20 mins followed by [gamma-33P]-ATP addition and measured after 120 mins by radiometric Hot-SpotSM Kinase assay relative to control
Chain of Receptor-interacting serine/threonine-protein kinase 3 (Homo sapiens) (Q9Y572 whole entry, looked up): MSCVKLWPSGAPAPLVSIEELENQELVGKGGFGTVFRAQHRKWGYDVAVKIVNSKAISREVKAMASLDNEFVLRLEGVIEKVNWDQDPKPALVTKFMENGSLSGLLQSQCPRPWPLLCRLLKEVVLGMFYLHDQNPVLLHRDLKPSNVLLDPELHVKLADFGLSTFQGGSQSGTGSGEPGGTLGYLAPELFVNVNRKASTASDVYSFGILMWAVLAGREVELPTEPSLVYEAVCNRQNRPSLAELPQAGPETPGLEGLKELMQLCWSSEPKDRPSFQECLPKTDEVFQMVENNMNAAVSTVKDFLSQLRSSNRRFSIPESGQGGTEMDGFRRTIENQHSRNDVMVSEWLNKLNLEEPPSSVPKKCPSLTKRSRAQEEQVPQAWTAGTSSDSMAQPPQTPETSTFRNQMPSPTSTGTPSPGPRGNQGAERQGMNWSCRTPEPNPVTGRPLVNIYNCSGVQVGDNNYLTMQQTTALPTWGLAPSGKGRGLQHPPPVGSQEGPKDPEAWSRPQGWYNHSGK

Chain of Myosin light chain kinase 2, skeletal/cardiac muscle (Homo sapiens) (Q9H1R3 whole entry): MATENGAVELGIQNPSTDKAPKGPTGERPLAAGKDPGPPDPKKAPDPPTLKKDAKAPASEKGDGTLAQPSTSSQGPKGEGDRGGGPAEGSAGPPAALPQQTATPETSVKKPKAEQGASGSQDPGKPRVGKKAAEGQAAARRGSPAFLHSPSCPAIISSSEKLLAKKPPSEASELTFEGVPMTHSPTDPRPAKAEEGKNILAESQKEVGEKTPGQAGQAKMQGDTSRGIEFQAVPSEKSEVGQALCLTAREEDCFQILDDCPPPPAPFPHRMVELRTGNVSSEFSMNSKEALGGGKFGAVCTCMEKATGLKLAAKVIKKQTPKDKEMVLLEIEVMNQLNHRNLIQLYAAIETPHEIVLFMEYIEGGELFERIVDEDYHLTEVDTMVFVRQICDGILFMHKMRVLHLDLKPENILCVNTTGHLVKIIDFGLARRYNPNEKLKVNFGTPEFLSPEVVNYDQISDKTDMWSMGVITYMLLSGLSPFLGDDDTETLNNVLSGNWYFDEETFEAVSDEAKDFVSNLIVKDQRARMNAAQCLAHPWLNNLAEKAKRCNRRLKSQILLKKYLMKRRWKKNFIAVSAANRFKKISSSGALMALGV
Chain of Insulin receptor (Homo sapiens) (P06213 28-758 limits assumed): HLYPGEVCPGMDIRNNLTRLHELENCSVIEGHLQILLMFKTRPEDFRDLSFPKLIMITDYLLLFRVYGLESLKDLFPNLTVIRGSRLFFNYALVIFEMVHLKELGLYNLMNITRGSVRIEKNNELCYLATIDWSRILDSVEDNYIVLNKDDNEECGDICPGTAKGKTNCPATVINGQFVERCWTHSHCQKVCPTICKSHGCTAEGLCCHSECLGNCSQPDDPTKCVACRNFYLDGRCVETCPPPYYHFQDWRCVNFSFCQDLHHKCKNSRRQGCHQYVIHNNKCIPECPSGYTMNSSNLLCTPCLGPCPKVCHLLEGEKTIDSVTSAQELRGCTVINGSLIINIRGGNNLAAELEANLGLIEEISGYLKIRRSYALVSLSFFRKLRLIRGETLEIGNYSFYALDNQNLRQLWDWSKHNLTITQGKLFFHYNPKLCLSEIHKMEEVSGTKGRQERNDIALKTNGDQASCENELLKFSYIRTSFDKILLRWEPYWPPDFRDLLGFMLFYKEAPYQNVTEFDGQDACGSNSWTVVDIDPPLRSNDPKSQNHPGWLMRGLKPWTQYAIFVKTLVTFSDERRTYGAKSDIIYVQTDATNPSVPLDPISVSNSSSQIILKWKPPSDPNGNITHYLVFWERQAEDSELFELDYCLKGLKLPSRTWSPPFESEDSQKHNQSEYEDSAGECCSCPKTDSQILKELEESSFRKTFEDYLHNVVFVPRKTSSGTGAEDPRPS
Chain of Insulin receptor (Homo sapiens) (P06213 763-1382 limits assumed): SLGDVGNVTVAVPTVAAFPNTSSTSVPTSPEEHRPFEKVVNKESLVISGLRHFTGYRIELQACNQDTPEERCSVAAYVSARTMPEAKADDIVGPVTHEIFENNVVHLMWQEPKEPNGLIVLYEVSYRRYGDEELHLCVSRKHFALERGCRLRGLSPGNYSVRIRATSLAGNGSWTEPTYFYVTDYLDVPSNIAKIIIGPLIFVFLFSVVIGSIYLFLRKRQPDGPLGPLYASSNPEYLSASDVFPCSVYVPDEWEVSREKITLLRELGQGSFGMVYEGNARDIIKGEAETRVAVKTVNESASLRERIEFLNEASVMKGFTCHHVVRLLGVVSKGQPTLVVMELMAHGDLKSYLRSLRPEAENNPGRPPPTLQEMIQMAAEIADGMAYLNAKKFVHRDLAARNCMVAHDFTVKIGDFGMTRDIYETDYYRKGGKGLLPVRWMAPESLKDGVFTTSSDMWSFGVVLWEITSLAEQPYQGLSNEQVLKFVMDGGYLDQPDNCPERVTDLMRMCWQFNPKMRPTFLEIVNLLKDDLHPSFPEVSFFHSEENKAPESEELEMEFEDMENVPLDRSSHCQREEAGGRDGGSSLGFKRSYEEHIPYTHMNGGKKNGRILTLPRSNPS
Chain of Ribosomal protein S6 kinase beta-1 (Homo sapiens) (P23443 whole entry, looked up): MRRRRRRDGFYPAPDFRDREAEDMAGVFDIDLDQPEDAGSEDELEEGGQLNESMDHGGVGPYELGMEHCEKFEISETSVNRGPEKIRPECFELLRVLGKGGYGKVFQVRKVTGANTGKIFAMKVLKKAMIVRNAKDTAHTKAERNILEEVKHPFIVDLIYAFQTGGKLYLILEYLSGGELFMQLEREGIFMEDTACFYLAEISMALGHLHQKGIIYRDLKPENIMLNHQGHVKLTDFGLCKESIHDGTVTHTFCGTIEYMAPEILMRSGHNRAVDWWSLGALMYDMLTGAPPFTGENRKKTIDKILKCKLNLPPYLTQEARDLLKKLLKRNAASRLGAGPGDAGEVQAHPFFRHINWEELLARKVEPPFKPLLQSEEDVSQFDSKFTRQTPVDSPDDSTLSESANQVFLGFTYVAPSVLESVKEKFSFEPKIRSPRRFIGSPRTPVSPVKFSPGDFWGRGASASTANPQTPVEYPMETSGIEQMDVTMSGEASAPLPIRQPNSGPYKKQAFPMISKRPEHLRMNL
Chain of Ribosomal protein S6 kinase alpha-4 (Homo sapiens) (O75676 whole entry, looked up): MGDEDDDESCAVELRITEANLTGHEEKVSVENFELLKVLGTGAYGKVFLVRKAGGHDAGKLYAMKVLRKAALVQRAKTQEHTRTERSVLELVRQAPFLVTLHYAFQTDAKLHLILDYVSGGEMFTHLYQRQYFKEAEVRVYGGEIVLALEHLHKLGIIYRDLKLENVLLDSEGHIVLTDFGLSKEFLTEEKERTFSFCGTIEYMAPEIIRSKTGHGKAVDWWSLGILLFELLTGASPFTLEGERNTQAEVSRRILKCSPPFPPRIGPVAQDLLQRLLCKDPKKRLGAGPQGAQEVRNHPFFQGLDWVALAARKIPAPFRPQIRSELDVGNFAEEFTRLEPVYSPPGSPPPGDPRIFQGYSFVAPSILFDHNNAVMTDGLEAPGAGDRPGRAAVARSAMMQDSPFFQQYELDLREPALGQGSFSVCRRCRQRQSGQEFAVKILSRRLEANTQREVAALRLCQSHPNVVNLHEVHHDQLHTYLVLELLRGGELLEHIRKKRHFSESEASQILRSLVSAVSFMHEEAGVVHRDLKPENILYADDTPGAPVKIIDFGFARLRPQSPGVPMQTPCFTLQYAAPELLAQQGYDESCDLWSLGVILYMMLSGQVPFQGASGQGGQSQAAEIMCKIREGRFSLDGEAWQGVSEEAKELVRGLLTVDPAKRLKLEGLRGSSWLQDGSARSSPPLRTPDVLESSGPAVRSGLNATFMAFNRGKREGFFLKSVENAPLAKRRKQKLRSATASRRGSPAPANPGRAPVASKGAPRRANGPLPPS
Chain of Platelet-derived growth factor receptor alpha (Homo sapiens) (P16234 whole entry): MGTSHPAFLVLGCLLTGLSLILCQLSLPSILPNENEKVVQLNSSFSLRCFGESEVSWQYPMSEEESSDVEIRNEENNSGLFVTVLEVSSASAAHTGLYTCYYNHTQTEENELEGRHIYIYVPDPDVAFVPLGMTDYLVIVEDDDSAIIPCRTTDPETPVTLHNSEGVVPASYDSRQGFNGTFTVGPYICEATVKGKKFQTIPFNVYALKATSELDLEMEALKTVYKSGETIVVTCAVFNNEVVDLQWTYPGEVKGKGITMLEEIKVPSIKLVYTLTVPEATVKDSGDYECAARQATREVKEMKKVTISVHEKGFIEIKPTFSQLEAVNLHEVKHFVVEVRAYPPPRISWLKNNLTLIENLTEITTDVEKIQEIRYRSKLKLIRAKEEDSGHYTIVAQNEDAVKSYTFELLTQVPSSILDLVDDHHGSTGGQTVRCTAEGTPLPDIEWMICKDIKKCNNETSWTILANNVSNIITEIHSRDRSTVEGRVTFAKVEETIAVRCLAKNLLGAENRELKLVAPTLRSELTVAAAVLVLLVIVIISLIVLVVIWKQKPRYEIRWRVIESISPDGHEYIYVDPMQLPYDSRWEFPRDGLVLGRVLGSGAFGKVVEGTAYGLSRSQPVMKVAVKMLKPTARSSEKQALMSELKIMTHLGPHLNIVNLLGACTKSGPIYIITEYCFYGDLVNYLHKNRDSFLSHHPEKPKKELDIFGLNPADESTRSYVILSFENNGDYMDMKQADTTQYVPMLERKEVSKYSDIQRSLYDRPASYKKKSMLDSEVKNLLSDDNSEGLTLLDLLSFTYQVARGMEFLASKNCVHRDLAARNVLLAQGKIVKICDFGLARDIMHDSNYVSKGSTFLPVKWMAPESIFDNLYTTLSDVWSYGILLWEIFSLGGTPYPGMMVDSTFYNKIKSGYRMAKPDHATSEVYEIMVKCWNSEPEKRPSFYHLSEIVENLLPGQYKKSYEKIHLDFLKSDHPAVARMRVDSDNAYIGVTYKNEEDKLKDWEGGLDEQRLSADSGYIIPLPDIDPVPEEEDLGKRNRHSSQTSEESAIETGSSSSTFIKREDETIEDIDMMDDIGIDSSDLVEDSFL

| Compound | Activity [1] | Activity [2] | Activity [3] | Activity [4] | Activity [5] | Activity [6] | Activity [7] | Activity [8] | Activity [9] | Activity [10] | Activity [11] |
| --- | --- | --- | --- | --- | --- | --- | --- | --- | --- | --- | --- |
| CC[C@H](Nc1ncnc2[nH]cnc12)c1nc2cccc(F)c2c(=O)n1-c1ccccc1 | 108% | 92.3% | 91.5% | 91.5% | 99.5% | 98.7% | 98.1% | 96.5% | 105% | 93.8% | 102% |
| CC(C)Oc1ccc(-c2nn([C@@H](C)c3oc4ccc(F)cc4c(=O)c3-c3cccc(F)c3)c3ncnc(N)c23)cc1F [UMBRALISIB] | 109% | 84.4% | 88.8% | 96.5% | 99.5% | 101% | 94.2% | 97.9% | 105% | 100% | 107% |
| C[C@H](Nc1ncnc2nc[nH]c12)c1cc2cccc(Cl)c2c(=O)n1-c1ccccc1 | 108% | 86.4% | 93.1% | 102% | 98.2% | 100% | 98.8% | 97.2% | 102% | 90.1% | 97.6% |
